Laboratory results taken from patent US12545639B2, “3-substituted phenylamidine compounds, preparation and use thereof” (PI INDUSTRIES LTD., priority 2019, dated 2026).

Assays:
Colletotrichum capsici = Colletotrichum capsici (anthracnose) in vitro test, radial growth on potato dextrose agar; type: cell-based; details: Colletotrichum truncatum, 168 h; 300 ppm in potato dextrose agar; 25° C., 60% relative humidity, seven days; read-out: control compared to the untreated check (radial growth)
Alternaria solani = Alternaria solani (early blight of tomato/potato) in vitro test, radial growth on potato dextrose agar; type: cell-based; details: 168 h, 300 ppm in potato dextrose agar, 25° C., 60% relative humidity, seven days, read-out: control compared to the untreated check (radial growth)
Rhizoctonia solani = Rhizoctonia solani (rice sheath blight/potato black scurf) in vitro test, radial growth on potato dextrose agar; type: cell-based; details: 168 h, 300 ppm in potato dextrose agar, 25° C., 60% relative humidity, seven days, read-out: control compared to the untreated check (radial growth)
Phakopsora pachyrhizi = Phakopsora pachyrhizi test in soybean, preventive, in vivo on plants; details: in Glycine max, read-out: Efficacy (% control), disease severity compared to the untreated check
[1] = tested on: Septoria lycopersici/Corynespora cassicola (CORYCA); test: Septoria lycopersici/Corynespora cassicola (CORYCA) (leaf spot of tomato) in vitro test, radial growth on potato dextrose agar; type: cell-based; details: 168 h, 300 ppm in potato dextrose agar, 25° C., 70% relative humidity, seven days, read-out: control compared to the untreated check (radial growth)
Pyricularia oryzae = test: microbe, parasite or virus in culture; type: cell-based; details: 168 h, read-out: control compared to the untreated check (radial growth)
Botrytis cinerea = Botrytis cinerea (gray mold) in vitro test, radial growth on potato dextrose agar; type: cell-based; details: 168 h, 300 ppm in potato dextrose agar, 22° C., 90% relative humidity, seven days, read-out: control compared to the untreated check (radial growth)

CCN(C)C=Nc1cc(F)cc(N(C)c2cccc(C)c2)c1C [Compound 38, N-ethyl-N′-(5-fluoro-2-methyl-3-(methyl(m-tolyl)amino)phenyl)-N-methylformimidamide]
≥ 70%: inhibition of growth at 300 ppm (Colletotrichum capsici) | inhibition of growth at 300 ppm (Alternaria solani) | inhibition of growth at 300 ppm (Rhizoctonia solani) | pest or weed control at 500 ppm (Phakopsora pachyrhizi) | inhibition of growth at 300 ppm [1] | inhibition of growth at 300 ppm (Pyricularia oryzae) | inhibition of growth at 300 ppm (Botrytis cinerea)

CCN(C)C=Nc1cc(Cl)cc(N(C)c2cnccn2)c1C [Compound 213, N′-(5-chloro-2-methyl-3-(methyl(pyrazin-2-yl)amino)phenyl)-N-ethyl-N-methylformimidamide]
≥ 70%: inhibition of growth at 300 ppm (Colletotrichum capsici) | inhibition of growth at 300 ppm (Alternaria solani) | inhibition of growth at 300 ppm (Rhizoctonia solani) | inhibition of growth at 300 ppm [1] | inhibition of growth at 300 ppm (Pyricularia oryzae) | inhibition of growth at 300 ppm (Botrytis cinerea)

CCN(C)C=Nc1cc(C)cc(Nc2ccc(F)cc2)c1Cl [Compound 60, N′-(2-chloro-3-((4-fluorophenyl)amino)-5-methylphenyl)-N-ethyl-N-methylformimidamide]
≥ 70%: inhibition of growth at 300 ppm (Colletotrichum capsici) | inhibition of growth at 300 ppm (Alternaria solani) | inhibition of growth at 300 ppm (Rhizoctonia solani) | pest or weed control at 500 ppm (Phakopsora pachyrhizi) | inhibition of growth at 300 ppm [1] | inhibition of growth at 300 ppm (Pyricularia oryzae) | inhibition of growth at 300 ppm (Botrytis cinerea)

CCN(C)C=Nc1cc(C)cc(Cc2ccc(Br)cc2F)c1Cl [Compound 217, N′-(3-(4-bromo-2-fluorobenzyl)-2-chloro-5-methylphenyl)-N-ethyl-N-methylformimidamide]
≥ 70%: inhibition of growth at 300 ppm (Colletotrichum capsici) | inhibition of growth at 300 ppm (Alternaria solani) | inhibition of growth at 300 ppm (Rhizoctonia solani) | pest or weed control at 500 ppm (Phakopsora pachyrhizi) | inhibition of growth at 300 ppm [1] | inhibition of growth at 300 ppm (Pyricularia oryzae) | inhibition of growth at 300 ppm (Botrytis cinerea)

CCN(C)C=Nc1cc(F)cc(Nc2cc(F)cc(Cl)c2)c1C [Compound 96, N′-(3-((3-chloro-5-fluorophenyl)amino)-5-fluoro-2-methylphenyl)-N-ethyl-N-methylformimidamide]
≥ 70%: inhibition of growth at 300 ppm (Colletotrichum capsici) | inhibition of growth at 300 ppm (Alternaria solani) | inhibition of growth at 300 ppm (Rhizoctonia solani) | inhibition of growth at 300 ppm [1] | inhibition of growth at 300 ppm (Pyricularia oryzae) | inhibition of growth at 300 ppm (Botrytis cinerea)

CCN(C)C=Nc1cc(C)cc(Nc2ccccc2)c1Cl [Compound 9, N′-(2-chloro-5-methyl-3-(phenylamino)phenyl)-N-ethyl-N-methylformimidamide]
≥ 70%: inhibition of growth at 300 ppm (Colletotrichum capsici) | inhibition of growth at 300 ppm (Alternaria solani) | inhibition of growth at 300 ppm (Rhizoctonia solani) | inhibition of growth at 300 ppm [1] | inhibition of growth at 300 ppm (Pyricularia oryzae) | inhibition of growth at 300 ppm (Botrytis cinerea)

CCN(C)C=Nc1cc(F)cc(Nc2ccccc2C)c1C [Compound 15, N-ethyl-N′-(5-fluoro-2-methyl-3-(o-tolylamino)phenyl)-N-methylformimidamide]
≥ 70%: inhibition of growth at 300 ppm (Colletotrichum capsici) | inhibition of growth at 300 ppm (Alternaria solani) | inhibition of growth at 300 ppm (Rhizoctonia solani) | inhibition of growth at 300 ppm [1] | inhibition of growth at 300 ppm (Pyricularia oryzae) | inhibition of growth at 300 ppm (Botrytis cinerea)

CCN(C)C=Nc1cc(F)cc(Nc2cccc(Cl)c2)c1C [Compound 37, N′-(3-((3-chlorophenyl)amino)-5-fluoro-2-methylphenyl)-N-ethyl-N-methylformimidamide]
≥ 70%: inhibition of growth at 300 ppm (Colletotrichum capsici) | inhibition of growth at 300 ppm (Alternaria solani) | inhibition of growth at 300 ppm (Rhizoctonia solani) | inhibition of growth at 300 ppm [1] | inhibition of growth at 300 ppm (Pyricularia oryzae) | inhibition of growth at 300 ppm (Botrytis cinerea)

CCN(C)C=Nc1cc(C)cc(Nc2cccc(C)c2F)c1Cl [Compound 123, N′-(2-chloro-3-((2-fluoro-3-methylphenyl)amino)-5-methylphenyl)-N-ethyl-N-methylformimidamide]
≥ 70%: inhibition of growth at 300 ppm (Colletotrichum capsici) | inhibition of growth at 300 ppm (Alternaria solani) | pest or weed control at 500 ppm (Phakopsora pachyrhizi) | inhibition of growth at 300 ppm [1] | inhibition of growth at 300 ppm (Pyricularia oryzae) | inhibition of growth at 300 ppm (Botrytis cinerea)
